From patent US10253027B2, “Aryl lactam kinase inhibitors” (Bristol-Myers Squibb Company, priority 2013, dated 2019) come the findings set out here.

T1 sequence (Q2M2I8 whole entry): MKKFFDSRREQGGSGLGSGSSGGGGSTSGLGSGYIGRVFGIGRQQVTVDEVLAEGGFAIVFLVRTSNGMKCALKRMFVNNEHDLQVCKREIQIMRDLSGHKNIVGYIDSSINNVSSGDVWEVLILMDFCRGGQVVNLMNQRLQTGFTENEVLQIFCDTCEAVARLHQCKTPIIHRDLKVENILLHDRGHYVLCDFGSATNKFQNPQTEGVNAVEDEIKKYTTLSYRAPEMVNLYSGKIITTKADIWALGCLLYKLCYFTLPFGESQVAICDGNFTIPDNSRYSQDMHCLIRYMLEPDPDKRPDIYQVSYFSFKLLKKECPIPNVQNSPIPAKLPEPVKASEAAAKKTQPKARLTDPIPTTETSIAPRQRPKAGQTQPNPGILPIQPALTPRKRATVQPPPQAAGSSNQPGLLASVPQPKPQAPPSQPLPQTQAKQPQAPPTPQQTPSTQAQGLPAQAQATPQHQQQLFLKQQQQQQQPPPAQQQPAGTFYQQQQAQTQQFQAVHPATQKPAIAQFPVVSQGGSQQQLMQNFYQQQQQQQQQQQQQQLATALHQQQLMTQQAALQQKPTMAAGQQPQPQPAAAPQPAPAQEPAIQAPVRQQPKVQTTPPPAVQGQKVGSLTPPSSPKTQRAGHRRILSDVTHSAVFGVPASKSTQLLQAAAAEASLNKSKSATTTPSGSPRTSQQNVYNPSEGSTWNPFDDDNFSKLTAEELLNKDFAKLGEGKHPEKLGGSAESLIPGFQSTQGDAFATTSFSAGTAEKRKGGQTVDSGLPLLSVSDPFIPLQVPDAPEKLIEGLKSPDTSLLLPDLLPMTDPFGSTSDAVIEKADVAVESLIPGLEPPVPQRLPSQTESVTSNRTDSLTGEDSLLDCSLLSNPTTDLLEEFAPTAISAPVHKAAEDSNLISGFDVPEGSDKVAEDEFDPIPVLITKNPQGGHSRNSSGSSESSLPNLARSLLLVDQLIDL

The assay has as its target T1, GST-Xa-hAAK1 (Homo sapiens, UniProt Q2M2I8).
T1 construct: made in house
Put plainly: AAK1 Kinase Assay. The format is biochemical. The following applies: IC50 (nM), ATP 22 μM; 3 hours at room temperature; Caliper LabChip 3000. As to the method: The assays were performed in U-bottom 384-well plates. […] The reactions were initiated by the combination of bacterially expressed, GST-Xa-hAAK1 with substrates and test compounds. The reactions were incubated at room temperature for 3 hours and terminated by adding 60 μl of 35 mM EDTA buffer to each sample. The reactions were analyzed on the Caliper LabChip 3000 (Caliper, Hopkinton, Mass.) by electrophoretic separation of the fluorescent substrate and phosphorylated product. […] Compounds were dissolved at 10 mM in dimethylsulfoxide (DMSO) and evaluated at eleven concentrations. IC50 values were derived by non-linear regression analysis.
`COc1cc(NC(=O)C(CC(C)C)N2CCC(N)CC2)ccc1-c1cnco1` (stereo not shown) [Example 33, 2-(4-Aminopiperidin-1-yl)-N-(3-methoxy-4-(oxazol-5-yl)phenyl)-4-methylpentanamide]: the half-maximal inhibitory concentration (IC50) was found to be 2100 nM.
The same measure for `COc1cc(NC(=O)C2CCCCN2C(C)C)ccc1-c1cnco1` (stereo not shown) [Example 83, 1-Isopropyl-N-(3-methoxy-4-(oxazol-5-yl)phenyl)piperidine-2-carboxamide]: 360 nM; for `COc1cc(NC(=O)[C@H](N)CC(C)C)c(C#N)cc1-c1cnco1` [Example 101, (R)-2-Amino-N-(2-cyano-5-methoxy-4-(oxazol-5-yl)phenyl)-4-methylpentanamide]: 25 nM.
The figure for `COc1cc(NC(=O)[C@H](N)CC(C)C)ccc1-c1ccnc(Cl)c1` [Example 43, (R)-2-Amino-N-(4-(2-chloropyridin-4-yl)-3-methoxyphenyl)-4-methylpentanamide] is 260 nM; for `CC(C)C[C@@H](N)C(=O)Nc1ccc(-c2ccncc2)cc1-c1nn[nH]n1` [Example 115, (R)-2-Amino-4-methyl-N-(4-(pyridin-4-yl)-2-(2H-tetrazol-5-yl)phenyl)pentanamide] it is 28 nM.
The same measure for `COc1cc(NC(=O)[C@@H]2CCCCN2)ccc1-c1cnco1` [Example 73, (S)—N-(3-Methoxy-4-(oxazol-5-yl)phenyl)piperidine-2-carboxamide]: 1500 nM.
As for `COc1cc(NC(=O)[C@@H](CC(C)C)NCc2ccsc2)ccc1-c1cnco1` [Example 65, (R)—N-(3-Methoxy-4-(oxazol-5-yl)phenyl)-4-methyl-2-((thiophen-3-ylmethyl)amino)pentanamide], the IC50 was determined as 370 nM.
The figure for `COc1cc(NC(=O)[C@@H](N)CC(C)C)ccc1-c1cnco1` [Example 5, (S)-2-Amino-N-(3-methoxy-4-(oxazol-5-yl)phenyl)-4-methylpentanamide] is 104 nM; for `COc1cc(NC(=O)C(N)CCC(C)C)ccc1-c1cnco1` (stereo not shown) [Example 8, 2-Amino-N-(3-methoxy-4-(oxazol-5-yl)phenyl)-5-methylhexanamide] it is 90 nM.
The figure for `CCCC[C@H](N)C(=O)Nc1ccc(-c2cnco2)c(OC)c1` [Example 53, (S)-2-Amino-N-(3-methoxy-4-(oxazol-5-yl)phenyl)hexanamide] is 270 nM; for `CCN(C(=O)[C@H](N)CC(C)C)c1ccc(-c2cnco2)c(OC)c1` [Example 10, (R)-2-Amino-N-ethyl-N-(3-methoxy-4-(oxazol-5-yl)phenyl)-4-methylpentanamide] it is 5010 nM; for `COc1cc(NC(=O)[C@@H](CC(C)C)NCc2cnn(C)c2)ccc1-c1cnco1` [Example 64, (R)—N-(3-Methoxy-4-(oxazol-5-yl)phenyl)-4-methyl-2-(((1-methyl-1H-pyrazol-4-yl)methyl)amino)pentanamide] it is 150 nM.
The same measure for `COc1cc(NC(=O)C(N)CC(C)C)ccc1-c1ccnc(N)c1` (stereo not shown) [Example 45, 2-Amino-N-(4-(2-aminopyridin-4-yl)-3-methoxyphenyl)-4-methylpentanamide]: 150 nM.
Consider `COc1cc(-c2cnco2)c(F)cc1NC(=O)[C@H](N)CC(C)C` [Example 107, (R)-2-Amino-N-(5-fluoro-2-methoxy-4-(oxazol-5-yl)phenyl)-4-methylpentanamide], for which the concentration for half-maximal inhibition (IC50) worked out at 84 nM.
The same measure for `COc1cc(NC(=O)C(N)CC(C)C)ccc1-c1cnco1` (stereo not shown) [Example 7, 2-Amino-N-(3-methoxy-4-(oxazol-5-yl)phenyl)-4-methylpentanamide]: 64 nM; for `CC(C)C[C@@H](N)C(=O)Nc1ccc(-c2ccncc2)cc1C(F)(F)F` [Example 111, (R)-2-Amino-4-methyl-N-(4-(pyridin-4-yl)-2-(trifluoromethyl)phenyl)pentanamide]: 300 nM.
The same measure for `COc1cc(NC(=O)C2NCCCC2C(C)C)ccc1-c1cnco1` (single isomer, unassigned) [Example 87, 3-Isopropyl-N-(3-methoxy-4-(oxazol-5-yl)phenyl)piperidine-2-carboxamide]: 280 nM.
The figure for `COc1cc(NC(=O)C2NCCC2C(C)C)ccc1-c1cnco1` (single isomer, unassigned) [Example 36, 3-Isopropyl-N-(3-methoxy-4-(oxazol-5-yl)phenyl)pyrrolidine-2-carboxamide] is 48 nM; for `COc1cc(NC(=O)[C@H]2C[C@@H](F)CN2)ccc1-c1cnco1` [Example 90, (2R,4R)-4-Fluoro-N-(3-methoxy-4-(oxazol-5-yl)phenyl)pyrrolidine-2-carboxamide] it is 1100 nM.
In the case of `COc1cc(NC(=O)[C@H](N)CC(C)C)c(-c2cnco2)cc1-c1cnco1` [Example 104, (R)-2-Amino-N-(5-methoxy-2,4-bis(oxazol-5-yl)phenyl)-4-methylpentanamide], the IC50 amounted to 760 nM.
The figure for `COc1cc(NC(=O)[C@@H](CC(C)C)NCc2ccc(C)cc2)ccc1-c1cnco1` [Example 63, (R)—N-(3-Methoxy-4-(oxazol-5-yl)phenyl)-4-methyl-2-((4-methylbenzyl)amino)pentanamide] is 540 nM.
For the compound `CC(C)C[C@@H](N)C(=O)Nc1ccc(-c2cnco2)c(Br)c1` [Example 12, (R)-2-Amino-N-(3-bromo-4-(oxazol-5-yl)phenyl)-4-methylpentanamide], the IC50 is 55 nM.
The figure for `COc1cc(NC(=O)[C@H](O)CC(C)C)ccc1-c1cnco1` [Example 34, (R)-2-Hydroxy-N-(3-methoxy-4-(oxazol-5-yl)phenyl)-4-methylpentanamide] is 202 nM.
The figure for `COc1c(-c2cnco2)ccc(NC(=O)[C@H](N)CC(C)C)c1Cl` [Example 28, (R)-2-Amino-N-(2-chloro-3-methoxy-4-(oxazol-5-yl)phenyl)-4-methylpentanamide] is 709 nM; for `COc1cc(NC(=O)[C@H](N)[C@H](C)O)ccc1-c1cnco1` [Example 77, (2R,3S)-2-Amino-3-hydroxy-N-(3-methoxy-4-(oxazol-5-yl)phenyl)butanamide] it is 810 nM.
As to `COc1cc(NC(=O)CN2CCCC2=O)ccc1-c1cnco1` [Example 59, N-(3-Methoxy-4-(oxazol-5-yl)phenyl)-2-(2-oxopyrrolidin-1-yl)acetamide], the IC50 worked out at 2400 nM.
The same measure for `COc1cc(NC(=O)[C@H](N)CC(C)C)c(-c2nn[nH]n2)cc1-c1cnco1` [Example 102, (R)-2-Amino-N-(5-methoxy-4-(oxazol-5-yl)-2-(2H-tetrazol-5-yl)phenyl)-4-methylpentanamide]: 6 nM; for `COc1cc(NC(=O)C2NCCC2C(C)C)ccc1-c1cnco1` (single isomer, unassigned) [Example 37, 3-Isopropyl-N-(3-methoxy-4-(oxazol-5-yl)phenyl)pyrrolidine-2-carboxamide]: 8 nM.
The same measure for `COc1cc(NC(=O)[C@@H](CC(C)C)NCc2csnn2)ccc1-c1cnco1` [Example 67, (R)-2-(((1,2,3-Thiadiazol-4-yl)methyl)amino)-N-(3-methoxy-4-(oxazol-5-yl)phenyl)-4-methylpentanamide]: 260 nM; for `COc1cc(NC(=O)C2NCCC2C(C)C)ccc1-c1cnco1` (single isomer, unassigned) [Example 38, 3-Isopropyl-N-(3-methoxy-4-(oxazol-5-yl)phenyl)pyrrolidine-2-carboxamide]: 110 nM; for `COc1cc(NC(=O)[C@@H](CC(C)C)NS(=O)(=O)Cc2ccccc2)ccc1-c1cnco1` [Example 72, (R)—N-(3-Methoxy-4-(oxazol-5-yl)phenyl)-4-methyl-2-(phenylmethylsulfonamido)pentanamide]: 1300 nM.
The figure for `COc1cc(NC(=O)[C@H](N)CC2CC2)c(F)cc1-c1cnco1` (stereo in doubt) [Example 95, 2-Amino-3-cyclopropyl-N-(2-fluoro-5-methoxy-4-(oxazol-5-yl)phenyl)propanamide] is 420 nM; for `CC(C)C[C@@H](N)C(=O)Nc1ccc(-c2ccncc2)cc1C#N` [Example 114, (R)-2-Amino-N-(2-cyano-4-(pyridin-4-yl)phenyl)-4-methylpentanamide] it is 75 nM.
For the compound `COc1cc(NC(=O)[C@@H](N)CC(C)C)c(F)cc1-c1cnco1` [Example 99, (S)-2-Amino-N-(2-fluoro-5-methoxy-4-(oxazol-5-yl)phenyl)-4-methylpentanamide], the concentration for half-maximal inhibition (IC50) was determined as 780 nM.
Take `CC(C)C[C@@H](N)C(=O)Nc1ccc(-c2ccncc2)cc1-c1cn[nH]c1` [Example 112, (R)—N-(2-(1H-pyrazol-4-yl)-4-(pyridin-4-yl)phenyl)-2-amino-4-methylpentanamide]: the 50% inhibitory concentration (IC50) is 1340 nM.
The same measure for `CNC1(C(=O)Nc2ccc(-c3cnco3)c(OC)c2)CC1` [Example 58, N-(3-Methoxy-4-(oxazol-5-yl)phenyl)-1-(methylamino)cyclopropanecarboxamide]: 4400 nM; for `COc1cc(NC(=O)[C@@H](CC(C)C)NCc2sccc2C)ccc1-c1cnco1` [Example 66, (R)—N-(3-Methoxy-4-(oxazol-5-yl)phenyl)-4-methyl-2-(((3-methylthiophen-2-yl)methyl)amino)pentanamide]: 110 nM; for `COc1cc(NC(=O)[C@@H]2CCCN2C(C)C)ccc1-c1cnco1` [Example 81, (S)-1-Isopropyl-N-(3-methoxy-4-(oxazol-5-yl)phenyl)pyrrolidine-2-carboxamide]: 510 nM.
As for `COc1cc(NC(=O)[C@H](N)CC(C)C)ccc1-c1cnc[nH]1` [Example 109, (R)—N-(4-(1H-Imidazol-5-yl)-3-methoxyphenyl)-2-amino-4-methylpentanamide], the half-maximal inhibitory concentration (IC50) is 790 nM.
The same measure for `CCC[C@H](N)C(=O)Nc1ccc(-c2cnco2)c(OC)c1` [Example 51, (S)-2-Amino-N-(3-methoxy-4-(oxazol-5-yl)phenyl)pentanamide]: 590 nM.
